Test results taken from patent US12435080B2, “sGC stimulators” (Tisento Therapeutics Inc., priority 2016, dated 2025).

Assays:
sGC = target: T1, sGC (Rattus norvegicus, UniProt P20595); test: cGMP neuronal cell-based assay; settings: rat primary hippocampal neurons; 30 μM DETA-NO; cGMP by LC-MS/MS; normalized to 10 μM Compound Y; compounds in Table IA; read-out: sGC-neuron Abs EC50
T1 construct: Rat primary neurons were isolated from fetuses of 18-day pregnant Sprague-Dawley females; endogenous in cells; host or cells: Primary rat hippocampal neurons (E18 Sprague-Dawley fetuses)
T1 sequence (P20595 1-619): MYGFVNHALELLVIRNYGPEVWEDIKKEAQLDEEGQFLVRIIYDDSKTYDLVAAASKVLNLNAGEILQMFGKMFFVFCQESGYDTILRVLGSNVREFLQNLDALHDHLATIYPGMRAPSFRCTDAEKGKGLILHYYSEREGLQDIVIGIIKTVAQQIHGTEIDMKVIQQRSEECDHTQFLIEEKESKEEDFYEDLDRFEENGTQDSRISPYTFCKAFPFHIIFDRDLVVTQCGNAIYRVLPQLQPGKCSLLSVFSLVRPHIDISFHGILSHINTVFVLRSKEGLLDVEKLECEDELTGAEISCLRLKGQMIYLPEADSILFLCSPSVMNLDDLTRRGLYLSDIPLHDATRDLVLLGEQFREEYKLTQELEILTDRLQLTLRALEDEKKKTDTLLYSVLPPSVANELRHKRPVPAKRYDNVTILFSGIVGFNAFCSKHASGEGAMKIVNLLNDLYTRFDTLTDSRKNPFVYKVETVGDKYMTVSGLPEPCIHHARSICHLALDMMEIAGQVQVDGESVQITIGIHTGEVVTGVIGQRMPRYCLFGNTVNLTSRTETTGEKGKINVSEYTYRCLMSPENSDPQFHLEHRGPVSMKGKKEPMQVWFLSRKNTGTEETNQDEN
Procedure: Rat primary neurons were isolated from fetuses of 18-day pregnant Sprague-Dawley females. The fetuses were collected in Hanks' balanced salt solution (HBSS) and brains were rapidly removed. The cerebral hippocampi were isolated and mechanically fragmented. Further tissue digestion was performed with 0.25% (wt/vol) trypsin solution in HBSS without Ca2+ and Mg2+ for 15 min at 37° C. After trypsination, cells were washed and resuspended in neurobasal medium supplemented with 0.5 mM L-glutamine, 12.5 uM glutamic acid, 2% B-27 and 100U/mL penicillin, and 100 μg/mL streptomycin. Cells were plated at a density of 4×10^4 cells/well in a poly-D-lysine coated 384-well flat clear-bottom plate (Corning Cat No 354662). Cells were incubated 6-7 days at 37° C. in a humidified chamber with 5% CO2. Media was removed and cells were washed 1× with HBSS containing Ca2+ and Mg2+, and replaced with 40 uL HBSS containing 0.5 mM IBMX, and incubated for 15 minutes at 37° C. 10 uL of a 5× stock of test compounds with diethylenetriamine NONOate (DETA-NO) was added. Final concentration of DETA-NO was 30 μM. Cells were incubated for 20 min at 37° C. Medium was removed, 50 uL of ice-cold 10% acetic acid was added, and incubated for 60 minutes at 4° C. Following centrifugation at 4° C. for 5 minutes at 1000×g to pellet cell debris, the supernatant was aspirated to a clean plate and the samples were analyzed for cGMP content. cGMP concentrations were determined from each sample using LC-MS/MS.
Data were normalized to a high control using the following equation: 100*(Sample−Low Control)/(High Control−Low Control), where the low control is the average of 15 samples treated with 1% DMSO, and the high control is the average of 15 samples treated with 10 μM of the known sGC stimulator Compound Y (depicted in Example 2). Data were fit using a 4-parameter fit (log(agonist) vs. response—variable slope) using GraphPad Prism Software v.5. n=2 for all compounds. The Absolute EC50 was interpolated from the curve fit and is defined as the concentration at which a given compound elicits 50% of the high control response after data normalization. Compounds failing to elicit a minimum response of 50% are reported as >30 μM. For compounds run in duplicate or n higher than 2, the result herein given is the geometric mean of the several results obtained.

[1] = Rat cerebrospinal fluid (CSF) pharmacokinetic properties; assay type: in vivo; settings: compounds in Table IA; for concentration at 1 h: CSF, male Sprague-Dawley rats, PO 10 mg/kg in PEG400, 1 h post-dosing, read-out: CSF Conc. (nM @ 1 h); for Kp uu at 1 h: male, Sprague-Dawley, CSF and plasma (unbound), unbound CSF/unbound plasma ratio, rats, PO 10 mg/kg
Procedure: PK in rats was determined following oral dosing. For the oral (PO) experiments, a group of 6 male Sprague-Dawley rats with an indwelling catheter placed in the cisterna magna were used. The PO group was dosed with 3 or 10 mg/kg of a compound formulated as a solution in PEG400. PO doses were administered by oral gavage and delivered to the stomach using a syringe and gavage tube. Following oral dosage administration, the gavage tube was flushed with approximately 0.5 mL of water to ensure complete delivery of the full dose.
Plasma and CSF samples were collected as follows: samples of CSF and blood were collected at 1 hour and 2 hours post-dosing. CSF samples (0.05 mL) were collected through the intracisternal catheter. Blood samples (0.25 mL) were collected through retro-orbital sampling. These samples were kept on ice until processed for plasma. Blood samples were centrifuged at 3200 rpm for 5 minutes at approximately 5° C. within 1 hour of collection. Plasma was directly transferred to a 96-well plate tube (0.125 mL). Plug caps were placed on the tubes and the tubes frozen at approximately −70° C. and stored until analysis.
Plasma was collected and analyzed for the presence of compound.
The compound in question and the internal standard were extracted from plasma and CSF by precipitation. Samples were analyzed using liquid chromatography (LC) with tandem mass spectrometric detection (MS/MS) using electrospray ionization. The standard curve range was from 1 to 1000 ng/mL. Results of the compounds described herein in this assay are illustrated in Tables 4A (for compounds in Table IA) and 4B (for compounds in Table IB) below.
Kp,uu is defined as the concentration ratio of unbound drug in CSF to unbound drug in plasma. Unbound drug in plasma (or free plasma concentration) is calculated by multiplying the total plasma concentration by the unbound fraction as determined by plasma protein binding. The CSF concentration is then divided by the free plasma concentration to determine the Kp,uu. (See e.g., Di et al., J. Med. Chem., 56, 2-12 (2013))

| Structure (SMILES) | EC50 (sGC) [nM] | concentration at 1 h [1] [nM] | Kp uu at 1 h [1] |
| --- | --- | --- | --- |
| Fc1ccccc1Cn1nc(-c2nc(C3CC3(F)F)n[nH]2)c2cccnc21 (stereo not drawn) [Compound I-96, 3-(3-(2,2-Difluorocyclopropyl)-1H-1,2,4-triazol-5-yl)-1-(2-fluorobenzyl)-1H-pyrazolo[3,4-b]pyridine] | ≤ 100 | 21.5 | 1.54 |
| FC(F)(F)c1n[nH]c(-c2nn(CCC(F)(F)C(F)(F)F)c3ncccc23)n1 [Compound I-2, 1-(3,3,4,4,4-pentafluorobutyl)-3-(3-(trifluoromethyl)-1H-1,2,4-triazol-5-yl)-1H-pyrazolo[3,4-b]pyridine] | ≤ 100 | 16.6 | 0.24 |
| Fc1cccc(Cc2nn(-c3nc(C(F)(F)F)n[nH]3)c3cccnc23)c1F [Compound I-105, 3-(2,3-Difluorobenzyl)-1-(3-(trifluoromethyl)-1H-1,2,4-triazol-5-yl)-1H-pyrazolo[4,3-b]pyridine] | ≤ 100 | 17.4 | 2.2 |
| Fc1ccccc1Cc1nn(-c2nc(C(F)F)n[nH]2)c2cccnc12 [Compound I-101, 1-(3-(Difluoromethyl)-1H-1,2,4-triazol-5-yl)-3-(2-fluorobenzyl)-1H-pyrazolo[4,3-b]pyridine] | ≤ 100 | 104 | 2.81 |
| N#Cc1n[nH]c(-c2nn(Cc3ccccc3F)c3ncccc23)n1 [Compound I-41] | ≤ 100 | 26.6 | 0.36 |
| FC(F)(F)c1n[nH]c(-c2nn(Cc3ccccc3)c3ncccc23)n1 [Compound I-49, 1-Benzyl-3-(3-(trifluoromethyl)-1H-1,2,4-triazol-5-yl)-1H-pyrazolo[3,4-b]pyridine] | ≤ 100 | 172 | 1.57 |
| FC(F)(F)c1n[nH]c(-c2nn(Cc3cncnc3)c3ncccc23)n1 [Compound I-4, 1-(Pyrimidin-5-ylmethyl)-3-(3-(trifluoromethyl)-1H-1,2,4-triazol-5-yl)-1H-pyrazolo[3,4-b]pyridine] | ≤ 100 | 79.5 | 1.98 |
| OCc1n[nH]c(-c2nn(Cc3ccccc3F)c3ncccc23)n1 [Compound I-64, (5-(1-(2-fluorobenzyl)-1H-pyrazolo[3,4-b]pyridin-3-yl)-1H-1,2,4-triazol-3-yl)methanol] | ≤ 100 | 13.1 | 0.54 |
| Fc1ccccc1Cc1nn(-c2nc(C(F)(F)F)n[nH]2)c2cccnc12 [Compound I-31, 3-(2-Fluorobenzyl)-1-(3-(trifluoromethyl)-1H-1,2,4-triazol-5-yl)-1H-pyrazolo[4,3-b]pyridine] | ≤ 100 | 66.6 | 3.84 |
| Fc1cccc(Cn2nc(-c3nc(Cl)n[nH]3)c3cccnc32)c1F [Compound I-86, 3-(3-Chloro-1H-1,2,4-triazol-5-yl)-1-(2,3-difluorobenzyl)-1H-pyrazolo[3,4-b]pyridine] | ≤ 100 | 31.5 | 2.41 |
| Cc1ncc(Cn2nc(-c3nc(C(F)(F)F)n[nH]3)c3ccccc32)cn1 [Compound I-62, 1-((2-methylpyrimidin-5-yl)methyl)-3-(3-(trifluoromethyl)-1H-1,2,4-triazol-5-yl)-1H-indazole] | ≤ 100 | 83 | 0.62 |
| Fc1cccc(Cn2nc(-c3nc(C(F)(F)F)n[nH]3)c3cccnc32)c1F [Compound I-48, 1-(2,3-Difluorobenzyl)-3-(3-(trifluoromethyl)-1H-1,2,4-triazol-5-yl)-1H-pyrazolo[3,4-b]pyridine] | ≤ 100 | 41.6 | 2.52 |
